{
  "source": "paper PMC5469273",
  "about": "“Discovery of Novel Small-Molecule Inhibitors of LIM Domain Kinase for Inhibiting HIV-1” (Journal of Virology, 2017)",
  "key": {"[1]": {"target": "JNK1 (Homo sapiens, UniProt P45983)", "assay": "Kinase profiling (Reaction Biology): JNK1"}, "[2]": {"system": "HIV-1(Env)", "format": "cell-based"}, "[3]": {"system": "resting CD4 T cells", "assay": "FITC-phalloidin staining of F-actin after SDF-1", "settings": "100 μM pretreatment, FITC-phalloidin flow cytometry"}, "[4]": {"target": "PAK2 (Homo sapiens, UniProt Q13177)", "assay": "Kinase profiling (Reaction Biology): PAK2"}, "[5]": {"system": "Vero cells", "settings": "up to 100 μM R10015"}, "[6]": {"system": "p-cofilin", "assay": "Intracellular p-cofilin staining and flow cytometry in CEM-SS T cells", "settings": "100 μM, 1 h, 0 h: 20.6%"}, "[7]": {"target": "NEK1 (Homo sapiens, UniProt Q96PY6)", "assay": "Kinase profiling (Reaction Biology): NEK1"}, "[8]": {"system": "VEEV-Luc (TC-83) and VEEV (TC-83)", "assay": "microbe, parasite or virus in culture", "format": "cell-based", "settings": "Venezuelan equine encephalitis virus, Vero, read-out: IC50, inhibition of VEEV"}, "[9]": {"target": "p70S6K/RPS6KB1 (Homo sapiens, UniProt P23443)", "assay": "Kinase profiling (Reaction Biology): p70S6K/RPS6KB1", "settings": "read-out: inhibition of p70S6K"}, "[10]": {"target": "TESK1 (Homo sapiens, UniProt Q15569)", "sequence (Q15569 whole entry)": "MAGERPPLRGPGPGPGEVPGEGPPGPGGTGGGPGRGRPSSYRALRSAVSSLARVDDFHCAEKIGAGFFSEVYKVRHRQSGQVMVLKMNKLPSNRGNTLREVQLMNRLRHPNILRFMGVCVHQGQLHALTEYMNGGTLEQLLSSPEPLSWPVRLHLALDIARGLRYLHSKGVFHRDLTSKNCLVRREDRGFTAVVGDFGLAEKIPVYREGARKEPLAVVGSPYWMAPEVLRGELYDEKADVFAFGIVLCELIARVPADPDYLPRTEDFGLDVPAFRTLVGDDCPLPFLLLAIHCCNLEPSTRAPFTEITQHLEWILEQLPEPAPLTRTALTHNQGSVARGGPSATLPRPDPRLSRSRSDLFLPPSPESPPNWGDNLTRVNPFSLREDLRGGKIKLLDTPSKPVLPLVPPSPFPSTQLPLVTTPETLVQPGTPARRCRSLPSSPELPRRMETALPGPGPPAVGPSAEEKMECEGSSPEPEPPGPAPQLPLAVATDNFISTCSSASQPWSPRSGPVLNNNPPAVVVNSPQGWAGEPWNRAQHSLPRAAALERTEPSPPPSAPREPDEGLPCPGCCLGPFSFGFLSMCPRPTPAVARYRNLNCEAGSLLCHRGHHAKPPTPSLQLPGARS", "assay": "Kinase profiling (Reaction Biology): TESK1"}, "[11]": {"target": "ROCK2 (Homo sapiens, UniProt O75116)", "sequence (O75116 whole entry)": "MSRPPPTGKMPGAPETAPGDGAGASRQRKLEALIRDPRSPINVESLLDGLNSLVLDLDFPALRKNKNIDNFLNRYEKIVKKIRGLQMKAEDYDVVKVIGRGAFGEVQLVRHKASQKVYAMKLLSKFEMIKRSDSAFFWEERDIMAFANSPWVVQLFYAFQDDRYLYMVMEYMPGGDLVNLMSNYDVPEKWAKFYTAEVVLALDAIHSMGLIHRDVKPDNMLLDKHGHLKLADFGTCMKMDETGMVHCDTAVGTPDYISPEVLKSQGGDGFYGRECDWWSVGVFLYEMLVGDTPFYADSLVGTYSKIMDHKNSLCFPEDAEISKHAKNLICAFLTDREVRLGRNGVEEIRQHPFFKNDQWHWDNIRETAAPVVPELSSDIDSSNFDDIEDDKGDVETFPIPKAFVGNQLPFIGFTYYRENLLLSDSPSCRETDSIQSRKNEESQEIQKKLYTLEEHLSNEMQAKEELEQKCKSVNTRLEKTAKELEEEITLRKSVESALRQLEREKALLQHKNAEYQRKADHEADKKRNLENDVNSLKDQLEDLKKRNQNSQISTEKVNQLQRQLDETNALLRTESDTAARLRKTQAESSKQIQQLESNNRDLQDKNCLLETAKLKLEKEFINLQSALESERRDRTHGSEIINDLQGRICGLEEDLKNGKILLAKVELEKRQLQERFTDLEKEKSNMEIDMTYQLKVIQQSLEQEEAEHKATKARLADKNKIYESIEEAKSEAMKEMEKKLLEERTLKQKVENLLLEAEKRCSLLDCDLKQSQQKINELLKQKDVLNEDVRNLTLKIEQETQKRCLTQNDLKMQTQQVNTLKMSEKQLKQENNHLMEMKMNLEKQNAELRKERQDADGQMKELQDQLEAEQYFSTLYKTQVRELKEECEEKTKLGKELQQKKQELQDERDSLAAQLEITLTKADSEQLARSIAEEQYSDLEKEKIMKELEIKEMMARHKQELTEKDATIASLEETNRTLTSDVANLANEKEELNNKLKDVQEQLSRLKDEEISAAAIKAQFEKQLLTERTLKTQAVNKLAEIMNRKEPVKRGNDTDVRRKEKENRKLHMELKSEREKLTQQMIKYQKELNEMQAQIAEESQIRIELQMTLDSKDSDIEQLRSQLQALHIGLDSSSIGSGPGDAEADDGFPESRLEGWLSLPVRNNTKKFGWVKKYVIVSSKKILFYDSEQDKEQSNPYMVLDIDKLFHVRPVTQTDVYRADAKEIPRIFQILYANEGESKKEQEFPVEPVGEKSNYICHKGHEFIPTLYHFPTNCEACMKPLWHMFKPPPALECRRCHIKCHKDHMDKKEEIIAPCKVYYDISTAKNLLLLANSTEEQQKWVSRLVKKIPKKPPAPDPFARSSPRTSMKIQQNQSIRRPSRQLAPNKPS", "assay": "Kinase profiling (Reaction Biology): ROCK2"}, "[12]": {"target": "PIM2 (Homo sapiens, UniProt Q9P1W9)", "assay": "Kinase profiling (Reaction Biology): PIM2"}, "[13]": {"system": "VEEV (TrD)", "format": "cell-based, Venezuelan equine encephalitis virus", "settings": "Vero cells, MOI 0.1, 24 h"}, "[14]": {"target": "CAMK2b (Homo sapiens, UniProt Q13554)", "assay": "Kinase profiling (Reaction Biology): CAMK2b"}, "[15]": {"target": "STK16 (Homo sapiens, UniProt O75716)", "sequence (O75716 whole entry)": "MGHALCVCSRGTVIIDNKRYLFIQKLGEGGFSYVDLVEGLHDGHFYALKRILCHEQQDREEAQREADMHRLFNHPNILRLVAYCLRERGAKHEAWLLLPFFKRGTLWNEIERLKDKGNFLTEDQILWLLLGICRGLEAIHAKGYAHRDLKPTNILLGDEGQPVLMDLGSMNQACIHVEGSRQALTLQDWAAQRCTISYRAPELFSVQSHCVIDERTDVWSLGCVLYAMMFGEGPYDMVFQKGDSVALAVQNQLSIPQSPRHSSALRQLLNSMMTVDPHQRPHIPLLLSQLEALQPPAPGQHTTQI", "assay": "Kinase profiling (Reaction Biology): STK16"}, "[16]": {"system": "HIV-1(NL4-3)", "format": "cell-based"}, "[17]": {"target": "LIMK1 (Homo sapiens, UniProt P53667)", "assay": "Kinase profiling (Reaction Biology): LIMK1"}, "[18]": {"target": "ALK (Homo sapiens, UniProt Q9UM73)", "assay": "Kinase profiling (Reaction Biology): ALK"}, "[19]": {"target": "RSK1 (Homo sapiens, UniProt Q15418)", "assay": "Kinase profiling (Reaction Biology): RSK1"}, "[20]": {"target": "TAOK1 (Homo sapiens, UniProt Q7L7X3)", "sequence (Q7L7X3 whole entry)": "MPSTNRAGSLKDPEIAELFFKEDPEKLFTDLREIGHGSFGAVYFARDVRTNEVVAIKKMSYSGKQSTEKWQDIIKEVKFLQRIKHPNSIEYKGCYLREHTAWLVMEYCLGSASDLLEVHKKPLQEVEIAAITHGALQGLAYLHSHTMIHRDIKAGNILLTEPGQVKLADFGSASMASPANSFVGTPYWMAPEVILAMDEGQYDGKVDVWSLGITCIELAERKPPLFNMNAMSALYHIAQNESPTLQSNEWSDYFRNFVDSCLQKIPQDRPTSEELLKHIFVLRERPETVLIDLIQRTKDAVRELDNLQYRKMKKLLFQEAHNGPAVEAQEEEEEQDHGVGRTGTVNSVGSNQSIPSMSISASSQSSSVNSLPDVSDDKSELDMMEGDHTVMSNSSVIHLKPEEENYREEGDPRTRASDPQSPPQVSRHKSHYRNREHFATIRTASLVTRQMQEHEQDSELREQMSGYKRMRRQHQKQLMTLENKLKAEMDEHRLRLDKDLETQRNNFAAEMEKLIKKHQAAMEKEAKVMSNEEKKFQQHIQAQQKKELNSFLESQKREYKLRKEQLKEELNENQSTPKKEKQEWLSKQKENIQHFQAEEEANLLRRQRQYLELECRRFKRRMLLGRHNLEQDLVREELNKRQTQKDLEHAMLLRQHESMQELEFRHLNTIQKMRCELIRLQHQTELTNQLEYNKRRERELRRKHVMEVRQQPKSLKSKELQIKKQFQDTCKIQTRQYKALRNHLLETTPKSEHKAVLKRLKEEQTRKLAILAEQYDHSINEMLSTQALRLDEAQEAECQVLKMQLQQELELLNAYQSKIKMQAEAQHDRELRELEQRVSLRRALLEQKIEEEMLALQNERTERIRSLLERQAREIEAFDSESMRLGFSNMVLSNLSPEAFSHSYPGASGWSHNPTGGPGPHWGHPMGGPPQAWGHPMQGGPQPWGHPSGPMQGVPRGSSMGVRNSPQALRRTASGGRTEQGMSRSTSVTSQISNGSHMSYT", "assay": "Kinase profiling (Reaction Biology): TAOK1"}, "[21]": {"target": "EGFR (Homo sapiens, UniProt P00533)", "assay": "Kinase profiling (Reaction Biology): EGFR"}, "[22]": {"system": "HIV-1(VSV G)", "format": "cell-based", "settings": "100 μM"}, "[23]": {"target": "JAK3 (Homo sapiens, UniProt P52333)", "assay": "Kinase profiling (Reaction Biology): JAK3"}, "[24]": {"system": "HIV-1(Vpr-β-lactamase)", "assay": "BlaM-Vpr-based viral entry assay", "format": "cell-based", "settings": "100 μM; CEM-SS T cells"}, "[25]": {"target": "BRAF (Homo sapiens, UniProt P15056)", "assay": "Kinase profiling (Reaction Biology): BRAF"}, "[26]": {"system": "HIV DNA-transfected HEK293 cells", "format": "cell-based, HIV-1", "settings": "different concentrations, 48 h"}, "[27]": {"system": "HIV-1(Env)", "format": "cell-based", "remark": "listed apart in the source"}, "[28]": {"target": "CK1d (Homo sapiens, UniProt P48730)", "sequence (P48730 whole entry)": "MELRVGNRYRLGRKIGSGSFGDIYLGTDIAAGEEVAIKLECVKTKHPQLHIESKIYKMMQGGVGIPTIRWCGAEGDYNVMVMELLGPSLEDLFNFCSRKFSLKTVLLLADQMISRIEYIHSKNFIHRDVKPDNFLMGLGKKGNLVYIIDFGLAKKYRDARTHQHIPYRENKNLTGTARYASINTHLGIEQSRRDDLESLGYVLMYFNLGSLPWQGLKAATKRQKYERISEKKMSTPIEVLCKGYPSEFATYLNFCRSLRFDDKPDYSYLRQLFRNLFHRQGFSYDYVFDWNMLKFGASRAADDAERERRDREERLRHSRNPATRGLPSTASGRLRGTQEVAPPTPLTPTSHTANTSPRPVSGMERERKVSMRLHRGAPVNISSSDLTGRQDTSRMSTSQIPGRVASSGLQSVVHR", "assay": "Kinase profiling (Reaction Biology): CK1d"}, "[29]": {"target": "c-Src (Homo sapiens, UniProt P12931)", "sequence (P12931 whole entry)": "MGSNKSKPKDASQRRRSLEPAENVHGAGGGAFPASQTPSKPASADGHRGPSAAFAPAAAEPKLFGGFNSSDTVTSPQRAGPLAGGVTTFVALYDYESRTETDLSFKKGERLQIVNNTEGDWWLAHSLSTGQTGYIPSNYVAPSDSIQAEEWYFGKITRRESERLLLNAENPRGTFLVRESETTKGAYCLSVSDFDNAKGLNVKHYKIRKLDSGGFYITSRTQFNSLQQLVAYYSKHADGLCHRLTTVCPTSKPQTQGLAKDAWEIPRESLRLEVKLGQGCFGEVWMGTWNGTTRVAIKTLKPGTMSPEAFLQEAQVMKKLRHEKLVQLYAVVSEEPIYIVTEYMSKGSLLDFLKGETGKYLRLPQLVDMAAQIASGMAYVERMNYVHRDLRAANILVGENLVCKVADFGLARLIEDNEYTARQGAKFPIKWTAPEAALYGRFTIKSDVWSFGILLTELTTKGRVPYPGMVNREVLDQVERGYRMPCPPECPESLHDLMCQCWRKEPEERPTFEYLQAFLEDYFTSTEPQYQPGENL", "assay": "Kinase profiling (Reaction Biology): c-Src"}, "[30]": {"target": "Aurora A (Homo sapiens, UniProt O14965)", "assay": "Kinase profiling (Reaction Biology): Aurora A"}, "[31]": {"target": "BTK (Homo sapiens, UniProt Q06187)", "sequence (Q06187 whole entry)": "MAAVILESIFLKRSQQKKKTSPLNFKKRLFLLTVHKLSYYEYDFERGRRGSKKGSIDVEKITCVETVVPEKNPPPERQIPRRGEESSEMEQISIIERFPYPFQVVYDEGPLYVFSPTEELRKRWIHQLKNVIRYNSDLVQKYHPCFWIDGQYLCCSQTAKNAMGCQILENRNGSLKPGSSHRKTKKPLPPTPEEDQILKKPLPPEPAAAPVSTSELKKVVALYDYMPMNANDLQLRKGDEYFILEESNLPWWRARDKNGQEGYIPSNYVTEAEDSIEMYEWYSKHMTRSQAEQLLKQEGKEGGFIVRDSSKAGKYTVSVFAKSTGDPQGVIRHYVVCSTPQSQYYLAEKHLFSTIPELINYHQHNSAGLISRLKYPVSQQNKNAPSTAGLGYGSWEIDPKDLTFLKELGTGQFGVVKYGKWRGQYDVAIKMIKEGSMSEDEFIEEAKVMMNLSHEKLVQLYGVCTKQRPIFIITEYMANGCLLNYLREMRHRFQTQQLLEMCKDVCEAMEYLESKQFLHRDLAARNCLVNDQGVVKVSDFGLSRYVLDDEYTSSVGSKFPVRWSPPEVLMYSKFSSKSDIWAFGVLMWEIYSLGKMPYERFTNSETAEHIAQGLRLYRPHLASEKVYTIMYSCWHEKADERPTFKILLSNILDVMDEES", "assay": "Kinase profiling (Reaction Biology): BTK"}, "[32]": {"system": "Jurkat T cells", "assay": "SDF-1-mediated chemotaxis assay (transwell)", "settings": "Homo sapiens, 2 h, read-out: IC50, inhibition of Jurkat T cell chemotaxis, SDF-1 40 ng/ml, 2 h, transwell"}, "[33]": {"target": "JNK3 (Homo sapiens, UniProt P53779)", "assay": "Kinase profiling (Reaction Biology): JNK3"}, "[34]": {"system": "Rev-CEM-GFP-Luc cells", "settings": "4 h treatment; all concentrations tested up to 200 μM"}, "[35]": {"target": "WEE1 (Homo sapiens, UniProt P30291)", "assay": "Kinase profiling (Reaction Biology): WEE1"}, "[36]": {"target": "PKA (Homo sapiens, UniProt P17612)", "assay": "Kinase profiling (Reaction Biology): PKA"}},
  "data": [
    {"smiles": "COC(=O)c1ccc2[nH]c(C3CCN(c4ncnc5[nH]cc(Cl)c45)CC3)nc2c1", "note": "[Compound R10015, Methyl 2-(1-(5-chloro-7H-pyrrolo[2,3-d]pyrimidin-4-yl)piperidin-4-yl)-1H-benzo[d]imidazole-5-carboxylate]", "values": [
      {"measurement": "activity at 1 µM", "setting": "[1]", "result": 95.2, "unit": "%"},
      {"measurement": "viral late DNA synthesis", "setting": "[2]", "result": "inhibited"},
      {"measurement": "SDF-1-mediated actin polymerization", "setting": "[3]", "result": "markedly depressed"},
      {"measurement": "activity at 1 µM", "setting": "[4]", "result": 98.2, "unit": "%"},
      {"measurement": "drug toxicity", "setting": "[5]", "result": "No drug toxicity"},
      {"measurement": "P-cofilin, lower gate (cells staining low)", "setting": "[6]", "result": 80, "unit": "%"},
      {"measurement": "activity at 1 µM", "setting": "[7]", "result": 67.2, "unit": "%"},
      {"measurement": "IC50", "setting": "[8]", "result": "~5", "unit": "µM"},
      {"measurement": "inhibition at 1 µM", "setting": "[9]", "result": "≥ 90", "unit": "%"},
      {"measurement": "activity at 1 µM", "setting": "[10]", "result": 90.2, "unit": "%"},
      {"measurement": "activity at 1 µM", "setting": "[11]", "result": 29.5, "unit": "%"},
      {"measurement": "inhibition at 1 µM", "setting": "[11]; read-out: inhibition of ROCK2", "result": "~70", "unit": "%"},
      {"measurement": "activity at 1 µM", "setting": "[12]", "result": 97.6, "unit": "%"},
      {"measurement": "inhibition of VEEV (TrD)", "setting": "[13]", "result": 2, "unit": "log units"},
      {"measurement": "activity at 1 µM", "setting": "[14]", "result": 90.8, "unit": "%"},
      {"measurement": "activity at 1 µM", "setting": "[15]", "result": 48.6, "unit": "%"},
      {"measurement": "Infectivity (percentage of GFP+ cells)", "setting": "[16]; 100 μM, pretreated 1 h, HIV-1(NL4-3) 3 h, washed, 48 h, viable cells only, paired DMSO controls 1.76-3.37%", "result": 0.43, "unit": "%"},
      {"measurement": "X4 HIV infection in screening", "setting": "[16]; at nontoxic dosages, […], Fig. 1C and 2", "result": "blocked"},
      {"measurement": "activity at 1 µM", "setting": "[17]", "result": 6.4, "unit": "%"},
      {"measurement": "activity at 1 µM", "setting": "[18]", "result": 95.5, "unit": "%"},
      {"measurement": "activity at 1 µM", "setting": "[19]", "result": 47.2, "unit": "%"},
      {"measurement": "activity at 1 µM", "setting": "[20]", "result": 54, "unit": "%"},
      {"measurement": "activity at 1 µM", "setting": "[21]", "result": 93.2, "unit": "%"},
      {"measurement": "inhibition of early steps of VSV G-pseudotyped HIV", "setting": "[22]", "result": "minimally inhibited"},
      {"measurement": "activity at 1 µM", "setting": "[23]", "result": 61.1, "unit": "%"},
      {"measurement": "viral entry, HIV-1(Vpr-β-lactamase)", "setting": "[24]", "result": "did not significantly inhibit"},
      {"measurement": "activity at 1 µM", "setting": "[25]", "result": 91.9, "unit": "%"},
      {"measurement": "virion release from HIV DNA-transfected HEK293 cells", "setting": "[26]", "result": "inhibited"},
      {"measurement": "p24 release (virion release)", "setting": "[27]", "result": "inhibited"},
      {"measurement": "activity at 1 µM", "setting": "[28]", "result": 85, "unit": "%"},
      {"measurement": "activity at 1 µM", "setting": "[29]", "result": 92.4, "unit": "%"},
      {"measurement": "activity at 1 µM", "setting": "[30]", "result": 60.3, "unit": "%"},
      {"measurement": "activity at 1 µM", "setting": "[31]", "result": 90.2, "unit": "%"},
      {"measurement": "IC50", "setting": "[32]", "result": "~10", "unit": "µM"},
      {"measurement": "activity at 1 µM", "setting": "[33]", "result": 85.7, "unit": "%"},
      {"measurement": "cytotoxicity", "setting": "[34]", "result": "no detectable cytotoxicity"},
      {"measurement": "activity at 1 µM", "setting": "[35]", "result": 97.2, "unit": "%"},
      {"measurement": "activity at 1 µM", "setting": "[36]", "result": 24, "unit": "%"},
      {"measurement": "inhibition at 1 µM", "setting": "[36]; read-out: inhibition of protein kinase A (PKA)", "result": "~76", "unit": "%"}
    ]}
  ]
}
